According to patent publication US10245261B2, “Substituted indol-5-ol derivatives and their therapeutic applications” (NantBioScience, Inc., priority 2013, dated 2019):

Assays:
Assay in all cases: KinaseProfiler kinase assay
Format in all cases: biochemical
EGFR(h) = EGFR(h) (Homo sapiens, UniProt P00533)
Procedure, shortened: (§1)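 Buffer 20 mM MOPS, 1 mM EDTA, 0.01% Brij-35, 5% glycerol, 0.1% β-mercaptoethanol, 1 mg/mL BSA for compound dilution; reaction at pH 7.0 with [γ-33P]ATP, 40 min RT; filtermat/scintillation read-out; 0%/100% set by no-kinase and phosphopeptide wells.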

CK1γ2(h) = CK1γ2(h) (Homo sapiens, UniProt P78368)
Procedure, shortened: as §1

EGFR(T790M)(h) = EGFR(T790M)(h) (Homo sapiens, UniProt P00533, T790M)
Procedure, shortened: as §1

PhKγ2(h) = PhKγ2(h) (Homo sapiens, UniProt P15735)
Procedure, shortened: as §1

Itk(h) = Itk(h) (Homo sapiens, UniProt Q08881)
Procedure, shortened: as §1

IR(h) = IR(h) (Homo sapiens, UniProt P06213)
Procedure, shortened: as §1

Fyn(h) = Fyn(h) (Homo sapiens, UniProt P06241)
Procedure, shortened: as §1

[1] = molecular target: PI3 Kinase (p110β/p85β)(m) (Mus musculus, UniProt Q8BTI9)
Procedure, shortened: as §1

TAO1(h) = TAO1(h) (Homo sapiens, UniProt Q7L7X3)
Procedure, shortened: as §1

mTOR/FKBP12(h) = mTOR/FKBP12(h) (Homo sapiens, UniProt P42345)
Procedure, shortened: as §1

Fes(h) = Fes(h) (Homo sapiens, UniProt P07332)
Procedure, shortened: as §1

PTK5(h) = PTK5(h) (Homo sapiens, UniProt P42685)
Procedure, shortened: as §1

ZIPK(h) = ZIPK(h) (Homo sapiens, UniProt O43293)
Procedure, shortened: as §1

ErbB4(h) = ErbB4(h) (Homo sapiens, UniProt Q15303)
Procedure, shortened: as §1

Met(D1246N)(h) = Met(D1246N)(h) (Homo sapiens, UniProt P08581, D1228N)
Procedure, shortened: as §1

cKit(V560G)(h) = cKit(V560G)(h) (Homo sapiens, UniProt P10721, V560G)
Procedure, shortened: as §1

ROCK-I(h) = ROCK-I(h) (Homo sapiens, UniProt Q13464)
Procedure, shortened: as §1

Snk(h) = Snk(h) (Homo sapiens, UniProt Q9NYY3)
Procedure, shortened: as §1

Aurora-B(h) = Aurora-B(h) (Homo sapiens, UniProt Q96GD4)
Procedure, shortened: as §1

CDK7/cyclinH/MAT1(h) = CDK7/cyclinH/MAT1(h) (Homo sapiens, UniProt P50613)
Procedure, shortened: as §1

cKit(D816H)(h) = cKit(D816H)(h) (Homo sapiens, UniProt P10721, D816H)
Procedure, shortened: as §1

NEK2(h) = NEK2(h) (Homo sapiens, UniProt P51955)
Procedure, shortened: as §1

ZAP-70(h) = ZAP-70(h) (Homo sapiens, UniProt P43403)
Procedure, shortened: as §1

GRK6(h) = GRK6(h) (Homo sapiens, UniProt P43250)
Procedure, shortened: as §1

TrkB(h) = TrkB(h) (Homo sapiens, UniProt Q16620)
Procedure, shortened: as §1

PIP5K1α(h) = PIP5K1α(h) (Homo sapiens, UniProt Q99755)
Procedure, shortened: as §1

Pim-2(h) = Pim-2(h) (Homo sapiens, UniProt Q9P1W9)
Procedure, shortened: as §1

Rsk2(h) = Rsk2(h) (Homo sapiens, UniProt P51812)
Procedure, shortened: as §1

[2] = molecular target: PI3 Kinase (p110α/p85α)(m) (Mus musculus, UniProt P42337)
Procedure, shortened: as §1

Met(D1246H)(h) = Met(D1246H)(h) (Homo sapiens, UniProt P08581, D1228H)
Procedure, shortened: as §1

PAK2(h) = PAK2(h) (Homo sapiens, UniProt Q13177)
Procedure, shortened: as §1

Sequence of EGFR(h) (P00533 25-1210): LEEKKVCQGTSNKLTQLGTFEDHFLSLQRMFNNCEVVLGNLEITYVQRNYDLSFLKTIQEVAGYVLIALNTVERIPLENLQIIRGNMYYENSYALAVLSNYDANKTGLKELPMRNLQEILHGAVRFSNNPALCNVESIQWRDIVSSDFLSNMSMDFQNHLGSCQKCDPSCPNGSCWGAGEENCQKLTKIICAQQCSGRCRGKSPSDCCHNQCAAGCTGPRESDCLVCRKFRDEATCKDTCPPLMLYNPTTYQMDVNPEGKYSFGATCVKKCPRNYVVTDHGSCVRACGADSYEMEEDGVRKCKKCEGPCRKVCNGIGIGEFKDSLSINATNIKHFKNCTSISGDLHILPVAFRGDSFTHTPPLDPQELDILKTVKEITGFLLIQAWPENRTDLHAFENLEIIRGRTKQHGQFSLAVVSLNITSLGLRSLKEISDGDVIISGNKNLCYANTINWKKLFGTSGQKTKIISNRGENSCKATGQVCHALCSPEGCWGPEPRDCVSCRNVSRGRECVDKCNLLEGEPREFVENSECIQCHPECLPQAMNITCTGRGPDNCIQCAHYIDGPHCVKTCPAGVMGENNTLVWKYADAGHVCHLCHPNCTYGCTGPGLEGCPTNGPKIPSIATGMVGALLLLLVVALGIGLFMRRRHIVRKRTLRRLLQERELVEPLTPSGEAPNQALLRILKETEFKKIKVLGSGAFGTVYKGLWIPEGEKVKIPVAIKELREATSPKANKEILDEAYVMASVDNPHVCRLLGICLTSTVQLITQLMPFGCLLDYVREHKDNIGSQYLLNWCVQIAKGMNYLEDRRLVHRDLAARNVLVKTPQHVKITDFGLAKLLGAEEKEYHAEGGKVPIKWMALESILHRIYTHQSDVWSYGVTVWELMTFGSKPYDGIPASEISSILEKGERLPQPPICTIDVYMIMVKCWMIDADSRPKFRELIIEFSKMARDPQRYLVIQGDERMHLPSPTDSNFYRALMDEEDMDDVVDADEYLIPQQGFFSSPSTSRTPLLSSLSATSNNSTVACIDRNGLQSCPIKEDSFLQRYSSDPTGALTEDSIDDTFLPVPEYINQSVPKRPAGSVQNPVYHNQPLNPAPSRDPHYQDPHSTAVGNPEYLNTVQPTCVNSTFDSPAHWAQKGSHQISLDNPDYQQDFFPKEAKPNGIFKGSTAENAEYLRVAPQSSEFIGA
Sequence of TAO1(h) (Q7L7X3 whole entry): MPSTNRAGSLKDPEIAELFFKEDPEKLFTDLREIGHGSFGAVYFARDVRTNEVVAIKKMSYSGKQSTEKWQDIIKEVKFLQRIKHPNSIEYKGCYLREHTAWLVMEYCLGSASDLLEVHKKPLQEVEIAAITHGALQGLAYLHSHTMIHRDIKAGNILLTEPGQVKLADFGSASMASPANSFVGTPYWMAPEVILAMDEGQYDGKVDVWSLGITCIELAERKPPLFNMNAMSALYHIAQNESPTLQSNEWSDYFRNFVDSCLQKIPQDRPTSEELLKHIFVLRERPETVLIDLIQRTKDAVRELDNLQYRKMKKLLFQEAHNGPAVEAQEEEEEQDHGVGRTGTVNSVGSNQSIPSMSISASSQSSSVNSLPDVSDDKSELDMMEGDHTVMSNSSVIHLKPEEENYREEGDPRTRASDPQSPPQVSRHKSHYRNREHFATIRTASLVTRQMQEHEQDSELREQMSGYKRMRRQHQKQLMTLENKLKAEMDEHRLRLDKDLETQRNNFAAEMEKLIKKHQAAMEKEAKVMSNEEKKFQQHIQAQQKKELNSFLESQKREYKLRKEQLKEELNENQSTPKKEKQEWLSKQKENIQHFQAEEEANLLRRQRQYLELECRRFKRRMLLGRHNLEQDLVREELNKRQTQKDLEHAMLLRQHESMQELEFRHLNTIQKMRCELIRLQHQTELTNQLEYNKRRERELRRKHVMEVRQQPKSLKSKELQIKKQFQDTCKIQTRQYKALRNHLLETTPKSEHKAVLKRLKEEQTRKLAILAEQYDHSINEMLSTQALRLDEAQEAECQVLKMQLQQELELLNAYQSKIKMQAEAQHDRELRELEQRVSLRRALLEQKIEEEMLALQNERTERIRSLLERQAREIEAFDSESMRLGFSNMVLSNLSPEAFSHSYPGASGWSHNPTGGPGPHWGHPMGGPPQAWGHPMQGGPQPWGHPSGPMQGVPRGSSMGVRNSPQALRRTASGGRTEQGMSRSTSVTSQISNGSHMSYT
Sequence of Met(D1246N)(h) (P08581 25-1408 isoform P08581-2 D1246N): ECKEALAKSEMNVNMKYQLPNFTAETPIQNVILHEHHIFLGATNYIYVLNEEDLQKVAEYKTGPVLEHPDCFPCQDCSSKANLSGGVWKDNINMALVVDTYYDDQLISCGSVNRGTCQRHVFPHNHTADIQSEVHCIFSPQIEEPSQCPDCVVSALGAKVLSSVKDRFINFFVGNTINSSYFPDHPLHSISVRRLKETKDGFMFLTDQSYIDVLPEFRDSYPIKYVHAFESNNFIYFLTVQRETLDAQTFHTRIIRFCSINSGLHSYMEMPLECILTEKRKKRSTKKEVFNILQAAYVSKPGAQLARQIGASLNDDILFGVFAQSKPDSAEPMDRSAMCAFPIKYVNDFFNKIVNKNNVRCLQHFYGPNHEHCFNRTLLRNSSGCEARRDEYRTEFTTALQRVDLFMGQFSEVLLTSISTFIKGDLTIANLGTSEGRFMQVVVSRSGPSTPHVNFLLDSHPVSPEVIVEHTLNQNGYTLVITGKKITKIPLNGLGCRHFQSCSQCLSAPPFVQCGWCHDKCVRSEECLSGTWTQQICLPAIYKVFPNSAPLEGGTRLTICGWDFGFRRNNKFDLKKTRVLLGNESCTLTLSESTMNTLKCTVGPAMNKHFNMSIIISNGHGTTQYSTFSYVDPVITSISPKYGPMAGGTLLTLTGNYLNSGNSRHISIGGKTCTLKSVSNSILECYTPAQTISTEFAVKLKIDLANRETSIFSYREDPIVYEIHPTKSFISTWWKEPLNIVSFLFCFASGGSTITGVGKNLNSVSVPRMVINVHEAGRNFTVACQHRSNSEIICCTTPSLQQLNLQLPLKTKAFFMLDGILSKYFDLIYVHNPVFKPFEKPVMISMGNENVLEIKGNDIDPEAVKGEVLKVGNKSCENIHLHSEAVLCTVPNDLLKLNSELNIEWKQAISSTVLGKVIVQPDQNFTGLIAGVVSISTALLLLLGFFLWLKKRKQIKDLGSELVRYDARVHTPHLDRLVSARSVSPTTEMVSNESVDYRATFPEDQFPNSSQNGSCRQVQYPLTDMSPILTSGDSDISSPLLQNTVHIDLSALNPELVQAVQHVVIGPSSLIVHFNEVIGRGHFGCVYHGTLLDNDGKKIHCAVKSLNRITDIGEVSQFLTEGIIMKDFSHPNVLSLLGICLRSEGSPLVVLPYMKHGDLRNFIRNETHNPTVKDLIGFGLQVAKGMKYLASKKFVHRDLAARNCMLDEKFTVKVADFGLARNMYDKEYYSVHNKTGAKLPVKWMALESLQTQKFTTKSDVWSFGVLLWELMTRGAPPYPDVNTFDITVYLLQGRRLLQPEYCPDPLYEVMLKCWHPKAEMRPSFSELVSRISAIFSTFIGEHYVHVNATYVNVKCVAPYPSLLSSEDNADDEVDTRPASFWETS
Sequence of CDK7/cyclinH/MAT1(h) (P50613 whole entry): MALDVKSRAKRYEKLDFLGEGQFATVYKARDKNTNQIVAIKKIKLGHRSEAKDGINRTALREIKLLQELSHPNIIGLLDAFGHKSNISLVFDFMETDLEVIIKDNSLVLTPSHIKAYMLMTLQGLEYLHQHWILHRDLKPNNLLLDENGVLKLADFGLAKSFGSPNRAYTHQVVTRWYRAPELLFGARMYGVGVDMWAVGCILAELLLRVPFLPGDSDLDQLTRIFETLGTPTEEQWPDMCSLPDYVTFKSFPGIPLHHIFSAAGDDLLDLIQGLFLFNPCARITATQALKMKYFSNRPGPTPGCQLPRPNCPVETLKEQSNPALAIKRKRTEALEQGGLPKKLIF
Sequence of CDK7/cyclinH/MAT1(h) (P51946 whole entry partner): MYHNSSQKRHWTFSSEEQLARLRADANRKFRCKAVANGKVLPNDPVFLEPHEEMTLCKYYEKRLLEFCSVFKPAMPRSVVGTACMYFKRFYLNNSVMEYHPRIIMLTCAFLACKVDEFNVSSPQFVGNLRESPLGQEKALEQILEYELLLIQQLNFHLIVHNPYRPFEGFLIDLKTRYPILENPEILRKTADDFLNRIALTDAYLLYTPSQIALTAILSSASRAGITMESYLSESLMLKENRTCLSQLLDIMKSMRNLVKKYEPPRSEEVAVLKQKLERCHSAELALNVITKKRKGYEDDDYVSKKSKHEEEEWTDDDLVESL
Sequence of CDK7/cyclinH/MAT1(h) (P51948 whole entry partner): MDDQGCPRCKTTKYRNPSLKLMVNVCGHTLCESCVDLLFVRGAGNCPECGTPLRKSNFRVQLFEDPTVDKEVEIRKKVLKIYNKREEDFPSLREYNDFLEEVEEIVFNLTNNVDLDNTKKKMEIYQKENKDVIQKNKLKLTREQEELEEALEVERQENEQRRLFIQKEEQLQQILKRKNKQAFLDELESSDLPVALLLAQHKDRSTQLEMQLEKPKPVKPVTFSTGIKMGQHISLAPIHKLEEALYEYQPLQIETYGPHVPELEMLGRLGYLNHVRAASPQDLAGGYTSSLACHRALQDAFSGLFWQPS
Sequence of CK1γ2(h) (P78368 whole entry): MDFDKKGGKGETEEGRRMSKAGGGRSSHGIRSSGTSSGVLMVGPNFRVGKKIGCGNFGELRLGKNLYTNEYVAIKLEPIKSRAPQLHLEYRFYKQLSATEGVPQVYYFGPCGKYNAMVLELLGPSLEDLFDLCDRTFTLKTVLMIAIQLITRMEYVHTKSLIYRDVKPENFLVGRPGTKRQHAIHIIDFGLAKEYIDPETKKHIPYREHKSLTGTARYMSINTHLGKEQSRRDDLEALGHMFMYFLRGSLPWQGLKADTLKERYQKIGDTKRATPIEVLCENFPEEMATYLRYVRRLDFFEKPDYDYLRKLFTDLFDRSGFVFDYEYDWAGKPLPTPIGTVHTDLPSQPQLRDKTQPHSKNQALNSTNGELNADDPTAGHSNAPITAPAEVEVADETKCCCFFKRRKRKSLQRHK

Structure (SMILES) | inhibition at 0.1 µM (EGFR(h)) | inhibition at 0.1 µM (CK1γ2(h)) | inhibition at 0.1 µM (EGFR(T790M)(h)) | inhibition at 0.1 µM (PhKγ2(h)) | inhibition at 0.1 µM (Itk(h)) | inhibition at 0.1 µM (IR(h)) | inhibition at 0.1 µM (Fyn(h)) | inhibition at 0.1 µM [1] | inhibition at 0.1 µM (TAO1(h)) | inhibition at 0.1 µM (mTOR/FKBP12(h)) | inhibition at 0.1 µM (Fes(h)) | inhibition at 0.1 µM (PTK5(h)) | inhibition at 0.1 µM (ZIPK(h)) | inhibition at 0.1 µM (ErbB4(h)) | inhibition at 0.1 µM (Met(D1246N)(h)) | inhibition at 0.1 µM (cKit(V560G)(h)) | inhibition at 0.1 µM (ROCK-I(h)) | inhibition at 0.1 µM (Snk(h)) | inhibition at 0.1 µM (Aurora-B(h)) | inhibition at 0.1 µM (CDK7/cyclinH/MAT1(h)) | further results
Cc1cc2c(F)c(Oc3nc(Nc4cc(C5CC5)[nH]n4)cc(N4CCN(C)CC4)n3)ccc2[nH]1 [Compound 10] | -8% | -20% | 17% | 2% | 31% | 83% | 102% | -1% | 24% | -14% | 48% | 72% | 1% | 13% | 80% | 89% | -15% | 9% | 97% | 44% | inhibition at 0.1 µM (cKit(D816H)(h)): 86%; inhibition at 0.1 µM (NEK2(h)): 6%; inhibition at 0.1 µM (ZAP-70(h)): 3%; inhibition at 0.1 µM (GRK6(h)): -5%; inhibition at 0.1 µM (TrkB(h)): 103%; inhibition at 0.1 µM (PIP5K1α(h)): -2%; inhibition at 0.1 µM (Pim-2(h)): -25%; inhibition at 0.1 µM (Rsk2(h)): 37%; inhibition at 0.1 µM [2]: 1%; inhibition at 0.1 µM (Met(D1246H)(h)): 74%; inhibition at 0.1 µM (PAK2(h)): 16%
Cc1cc2c(F)c(Oc3nc(Nc4cc(C5CC5)[nH]n4)cc(N4CCNCC4)n3)ccc2[nH]1 [Compound 11, N-(5-cyclopropyl-1H-pyrazol-3-yl)-2-((4-fluoro-2-methyl-1H-indol-5-yl)oxy)-6-(piperazin-1-yl)pyrimidin-4-amine] | -6% | -16% | 30% | 13% | 54% | 84% | 99% | -1% | 26% | -9% | 54% | 72% | 7% | -5% | 84% | 94% | -15% | 5% | 98% | 26% | inhibition at 0.1 µM (cKit(D816H)(h)): 91%; inhibition at 0.1 µM (NEK2(h)): -7%; inhibition at 0.1 µM (ZAP-70(h)): -13%; inhibition at 0.1 µM (GRK6(h)): -14%; inhibition at 0.1 µM (TrkB(h)): 100%; inhibition at 0.1 µM (PIP5K1α(h)): -3%; inhibition at 0.1 µM (Pim-2(h)): 17%; inhibition at 0.1 µM (Rsk2(h)): 7%; inhibition at 0.1 µM [2]: -1%; inhibition at 0.1 µM (Met(D1246H)(h)): 93%; inhibition at 0.1 µM (PAK2(h)): 0%
